Data reported in patent publication US20070172957A1, “Methods of identifying anti-inflammatory macrolides” (TAISHO PHARMACEUTICAL CO., LTD., priority 2004, published 2007).

Test system: genes predictive for the anti-inflammatory macrolide effect
Experiment: Genes statistically predictive of Clari response: differentially expressed with Clari but not the inactive macrolides MAA or Josa (Appendix E)
Format: cell-based
Description: In the case of the above-mentioned (i) related to arachidonic acid biosynthesis, specifically, methods of the embodiment involve assaying whether a test macrolide alters biosynthesis of arachidonic acid, alters the expression or activities of enzymes involved in the biosynthesis or activation of arachidonic acid (e.g., arachidonic acid CoA synthetase, delta-6 desaturase, fatty acid elongase, and delta-5 desaturase, AA-related genes in Tables 2 and 3), or alters the expression of genes identified as predictive for the anti-inflammatory macrolide effect (Appendix E). Assays in which arachidonic acid or gene expression or enzymatic activity is detected can be carried out after contacting a cell with a test macrolide. Any cell line that secretes prostaglandin or produces arachidonic acid can be used. Epithelial and macrophages lines (e.g., A549 or THP-1) are suitable for this purpose; other cell lines can be identified by carrying out assays such as those described in the specific Examples, below. Alternatively, screening assays can be carried out after adding a test macrolide to an in vitro cell system (e.g., a cellular extract or liver microsome preparation) or an in vitro enzyme assay system.

CC[C@H]1OC(=O)[C@H](C)[C@@H](O[C@H]2C[C@@](C)(OC)[C@@H](O)[C@H](C)O2)[C@H](C)[C@@H](O[C@@H]2O[C@H](C)C[C@H](N(C)C)[C@H]2O)[C@](C)(OC)C[C@@H](C)C(=O)[C@H](C)[C@@H](O)[C@]1(C)O [clarithromycin]
group mean, gene UNG (SpotID 48807, MAA and Josa vs. Clari): 0.91 | group mean, gene TUBB (SpotID 48914, MAA and Josa vs. Clari): 0.83 | group mean, gene ITGAE (SpotID 48921, MAA and Josa vs. Clari): 0.99 | mean group, ITGAE (SpotID 48921, pooled group mean): 0.97 | group mean, gene P4HA2 (SpotID 48971, MAA and Josa vs. Clari): 1.48 | group mean, gene FADS1 (SpotID 48998, MAA and Josa vs. Clari): 1.44 | group mean, gene PRSS25 (SpotID 49006, MAA and Josa vs. Clari): 1.17 | mean group, PRSS25 (SpotID 49006, pooled group mean): 1.14 | group mean, gene TM9SF2 (SpotID 49007, MAA and Josa vs. Clari): 1.20 | mean group, TM9SF2 (SpotID 49007, pooled group mean): 1.18 | group mean, gene BBC3 (SpotID 49013, MAA and Josa vs. Clari): 1.07 | group mean, gene BNIP3L (SpotID 49028, MAA and Josa vs. Clari): 1.25 | mean group, BNIP3L (SpotID 49028, pooled group mean): 1.20 | group mean, gene GSK3B (SpotID 49032, MAA and Josa vs. Clari): 1.23 | group mean, gene GLUD1 (SpotID 49047, MAA and Josa vs. Clari): 0.95 | group mean, gene SERPINB1 (SpotID 49117, MAA and Josa vs. Clari): 0.84 | mean group, SERPINB1 (SpotID 49117, pooled group mean): 0.88 | group mean, gene PPIB (SpotID 49142, MAA and Josa vs. Clari): 1.18 | group mean, gene PIK3R3 (SpotID 49144, MAA and Josa vs. Clari): 1.15 | group mean, gene ARTS-1 (SpotID 49155, MAA and Josa vs. Clari): 0.81 | mean group, ARTS-1 (SpotID 49155, pooled group mean): 0.86 | group mean, gene LGALS3 (SpotID 49163, MAA and Josa vs. Clari): 1.23 | group mean, gene RRS1 (SpotID 49169, MAA and Josa vs. Clari): 0.88 | mean group, RRS1 (SpotID 49169, pooled group mean): 0.93 | group mean, gene YAF2 (SpotID 49172, MAA and Josa vs. Clari): 0.90 | group mean, gene NEDD8 (SpotID 49177, MAA and Josa vs. Clari): 1.06 | group mean, gene SRRM1 (SpotID 49183, MAA and Josa vs. Clari): 0.81 | group mean, gene FUCA1 (SpotID 49197, MAA and Josa vs. Clari): 1.13 | group mean, gene APOE (SpotID 49233, MAA and Josa vs. Clari): 1.03 | mean group, APOE (SpotID 49233, pooled group mean): 1.01 | mean group, TNFRSF10B (SpotID 49272, pooled group mean): 1.08 | group mean, gene PPIB (SpotID 49314, MAA and Josa vs. Clari): 1.18 | mean group, PPIB (SpotID 49314, pooled group mean): 1.16 | group mean, gene YWHAH (SpotID 49318, MAA and Josa vs. Clari): 0.95 | mean group, YWHAH (SpotID 49318, pooled group mean): 0.97 | group mean, gene HNRPA3 (SpotID 49347, MAA and Josa vs. Clari): 0.71 | group mean, gene NCBP2 (SpotID 49352, MAA and Josa vs. Clari): 1.03 | group mean, gene TEB4 (SpotID 49360, MAA and Josa vs. Clari): 0.88 | mean group, TEB4 (SpotID 49360, pooled group mean): 0.94 | group mean, gene ABCE1 (SpotID 49364, MAA and Josa vs. Clari): 0.92 | group mean, gene EIF3S9 (SpotID 49373, MAA and Josa vs. Clari): 0.94 | mean group, SpotID 49374 (SpotID 49374 (gene symbol not given), pooled group mean): 1.03 | group mean, SpotID 49374 (gene symbol not given) (SpotID 49374, MAA and Josa vs. Clari): 1.04 | group mean, gene SLC35A2 (SpotID 49380, MAA and Josa vs. Clari): 1.11 | group mean, gene PPP3CB (SpotID 49391, MAA and Josa vs. Clari): 0.92 | group mean, gene TRRAP (SpotID 49435, MAA and Josa vs. Clari): 0.89 | mean group, TRRAP (SpotID 49435, pooled group mean): 0.92 | group mean, gene SRC (SpotID 49446, MAA and Josa vs. Clari): 1.17 | mean group, SRC (SpotID 49446, pooled group mean): 1.14 | group mean, gene LOC55871 (SpotID 49481, MAA and Josa vs. Clari): 1.05 | group mean, gene VTN (SpotID 49490, MAA and Josa vs. Clari): 0.91 | mean group, VTN (SpotID 49490, pooled group mean): 0.94 | group mean, gene MATN2 (SpotID 49511, MAA and Josa vs. Clari): 1.17 | group mean, gene GC20 (SpotID 49512, MAA and Josa vs. Clari): 1.16 | group mean, gene UBC (SpotID 49514, MAA and Josa vs. Clari): 1.11 | mean group, UBC (SpotID 49514, pooled group mean): 1.09 | group mean, gene AP1G2 (SpotID 49524, MAA and Josa vs. Clari): 0.97 | mean group, AP1G2 (SpotID 49524, pooled group mean): 0.92 | group mean, gene GNPI (SpotID 49546, MAA and Josa vs. Clari): 1.16 | mean group, LOC54543 (SpotID 49577, pooled group mean): 1.02 | group mean, gene PSMC4 (SpotID 49580, MAA and Josa vs. Clari): 0.99 | mean group, CSTF3 (SpotID 49606, pooled group mean): 1.07 | group mean, gene POU4F1 (SpotID 49608, MAA and Josa vs. Clari): 1.05 | group mean, gene CLN2 (SpotID 49618, MAA and Josa vs. Clari): 1.15 | mean group, CLN2 (SpotID 49618, pooled group mean): 1.12 | group mean, gene FGF2 (SpotID 49649, MAA and Josa vs. Clari): 0.76 | group mean, gene MAP3K10 (SpotID 49650, MAA and Josa vs. Clari): 1.16 | mean group, BTN3A2 (SpotID 49673, pooled group mean): 1.11 | mean group, SERPINF1 (SpotID 49679, pooled group mean): 1.09 | group mean, gene GSK3B (SpotID 49688, MAA and Josa vs. Clari): 1.26 | group mean, gene CAT (SpotID 49698, MAA and Josa vs. Clari): 1.08 | group mean, gene PCYT2 (SpotID 49705, MAA and Josa vs. Clari): 1.24 | group mean, gene HNRPD (SpotID 49715, MAA and Josa vs. Clari): 0.88 | group mean, gene GSK3B (SpotID 49735, MAA and Josa vs. Clari): 1.13 | group mean, gene CHAF1B (SpotID 49737, MAA and Josa vs. Clari): 0.84 | mean group, CHAF1B (SpotID 49737, pooled group mean): 0.88 | group mean, gene USF2 (SpotID 49744, MAA and Josa vs. Clari): 1.07 | group mean, gene RPLP0 (SpotID 49747, MAA and Josa vs. Clari): 1.09
